Test results as given in article PMC11148772, “Inhibition of protein translational machinery in triple-negative breast cancer as a promising therapeutic strategy” (Cell Reports Medicine, 2024).
Residues, ends and D or L forms follow the SMILES beside them. *: point of attachment. Cbz = O=C(OCc1ccccc1)*

Key:
YB-1 [1] = molecular target: T1, YB-1 (Homo sapiens, UniProt P67809); assay: Pulldown assay with biotinylated SU056, MDA-MB-231; type: binding; parameters: endogenous in cells; host or cells: MDA-MB-231; settings: 2 μM, 2 h
Description: (§1) Protein pulldown assay was performed using biotinylated SU056. MDA-MB-231 and MDA-MB-468 cells were treated with 2 μM biotinylated SU056 for 2 h. After 2 h of treatment, cells were collected and lysed using M-PER lysis solution (Thermo Scientific, #78503), supplemented with Halt protease and phosphatase inhibitor cocktail (Thermo Scientific, #78440). Protein lysate from Biotinylated SU056 treated cells were treated with RNase (10 μg/mL) for 15 min at 37°C. 600 μg protein was incubated with magnetic conjugate streptavidin bead (CST, #5947) at room temperature on rocker for 30 min. Biotin-streptavidin conjugates were pulled down and washed using a magnetic rack. After three washes, beads were resuspended in 2X SDS sample buffer followed by heating at 90°C–100°C for 5 min. Samples were resolved and probed with anti-YB-1 and anti-RPL11 antibodies as described in immunoblotting. Samples of protein lysates from MDA-MB-231 and MDA-MB-468 without biotinylated SU056 (input), samples from pulldown using only biotin and only streptavidin beads were used as experimental controls.

YB-1 [2] = molecular target: T1, YB-1; assay: Pulldown assay with biotinylated SU056, MDA-MB-468; type: binding; parameters: endogenous in cells; settings: 2 μM, 2 h
Description: as §1

[3] = tested on: TNBC cells (MDA-MB-231, MDA-MB-468, SUM159); assay: Immunoblot assay of cell lysates; type: cell-based, human; settings: MG132 10 μM + SU056 1 μM, 15 h, MDA-MB-231 and MDA-MB-468

| Structure (SMILES) | interaction with YB-1 (pull-down) (YB-1 [1]) | increase of interaction with YB-1 in RNase-treated protein lysates (YB-1 [1]; RNase 10 μg/mL) [fold] | interaction with YB-1 (pull-down) (YB-1 [2]) | increase of interaction with YB-1 in RNase-treated protein lysates (YB-1 [2]; RNase 10 μg/mL) [fold] | effect on SU056-induced decrease in levels of YB-1 and RPL11 [3] |
| --- | --- | --- | --- | --- | --- |
| O=C(CCCC[C@@H]1SC[C@@H]2NC(=O)N[C@@H]21)NCCSSCCC(=O)OCCN1C2=C(C(=O)OC2)C(c2cccc(F)c2)c2cc3c(cc21)OCO3 (stereo partly drawn) [biotinylated SU056, 2-(9-(3-fluorophenyl)-8-oxo-6,9-dihydro-[1,3]dioxolo[4,5-g]furo[3,4-b]quinolin-5(8H)-yl)ethyl 3-((2-(5-((3aS,4S,6aR)-2-oxohexahydro-1H-thieno[3,4-day]imidazol-4-yl)pentanamido)ethyl)disulfaneyl)propanoate] | physically interacts | 3.13 | physically interacts | 18.76 |  |
| CC(C)C[C@@H](C=O)NC(=O)[C@H](CC(C)C)NC(=O)[C@H](CC(C)C)NC(=O)OCc1ccccc1 [MG132, reference compound] (Cbz-Leu-Leu-Leu-aldehyde) |  |  |  |  | partially reversed |
